# Paper PMC11802874, “The hypolipidemic effect of MI-883, the combined CAR agonist/ PXR antagonist, in diet-induced hypercholesterolemia model” (Nature Communications, 2025)
# Values joined by “and” are separate entries in the source; they are usually repeats but may differ in a detail not shown here. Equal entries are not always repeated.
# Assays:
# murine Car = settings: cited from earlier work
# [1] = system: LS174T cells (endogenous PXR); test: CYP3A4 mRNA RT-qPCR in LS174T cells
# Description: LS174T human colon adenocarcinoma cells (RRID:CVCL_1384) were used in induction experiments with the subsequent CYP3A4 mRNA RT-qPCR analysis as they express functional endogenous PXR.
# [2] = system: PXR-responsive CYP3A4(pER6)-luc construct; test: CYP3A4(pER6)-luc luciferase reporter assay in HepG2 cells
# HepaRG cells = test: RT-qPCR mRNA expression in differentiated HepaRG cells
# Description: (§2) HepaRG cells from Biopredic (Rennes, France) were cultivated and differentiated on the 12-well plates. […] Several batches of HepaRG KO CAR (CAR Knockout HepaRG™ Cells, MTOX1012-1VL, RRID:CVCL_B6AA) and PXR Knockout HepaRG™ Cells, MTOX1011-1VL, RRID:CVCL_B6AS) cells have been obtained from Sigma-Aldrich/Merck (Darmstadt, Germany) and cultivated according to the provider’s protocols. […] Experiments with HepaRG KO PXR and HepaRG KO CAR cells have been performed in duplicates at least in two independent experiments.
# (§3) RT-qPCR was used to examine gene expression in 2D and 3D PHH, HepaRG cells, or in mouse liver or intestine (ileum) samples as we have described before[60]–[62].
# (§4) All qRT-qPCR experiments including Trizol reagent (Life Technologies) total RNA isolation, reverse-transcription using a random hexaprimer, and the MMLV Reverse Transcriptase Kit (ThermoFisher Scientific) we have described before^19. qPCR was performed using TaqMan Fast Advanced Master Mix with TaqMan probes (ThermoFisher Scientific). […] The delta-delta method was used for gene expression quantification normalized to at least two reference genes. Three technical replicates were used for each reaction considering the MIQE guidelines. Data are presented as fold induction to vehicle-treated cells/animals.
# [3] = Metabolic stability in human liver S9 fraction
# Experimental: (§1) Shimadzu HPLC system including vacuum degasser, gradient pumps, reverse phase HPLC column, column oven, and autosampler with an API 4000 QTRAP mass spectrometer (Applied Biosystems/MDS Sciex (AB Sciex) with Turbo V ion source and TurboIonspray interface were used. The reference compound midazolam, which is metabolized both by phase I and phase II enzymes, was used. The elimination constant (kel), half-life (t1/2), and intrinsic clearance (Clint) were determined[19] (Table S1).
# Supplementary Figure 1. […] Test compounds (1 μM, final DMSO concentration 1%) were incubated at 37 °C with shaking at 100 rpm. Four time points over 120 minutes have been analyzed. The reactions were stopped by adding 420 μL of acetonitrile-water mixture (90:10). Supernatants were analyzed by the HPLC system coupled with a tandem mass spectrometer. The percentage (in % of initial concertation) of the test compounds remaining after incubation in plasma and their half-lives (t1/2) were calculated. […] The stability of the compound was tested in human liver S9 fraction. Cofactors were used such as UDPGA (for glucuronidation), PAPS (for sulfation), and reduced glutathione (for conjugation of GSH). Compounds were tested in triplicate with or without NADPH. Propantheline and midazolam were used as unstable control compounds in the experiments. Data represent the means±S.D. from at least three independent samples.
# [4] = Metabolic stability in mouse liver S9 fraction; settings: male, CD-1, mouse, s9
# Experimental: as §1
# HepaRG KO CAR cells = test: RT-qPCR mRNA expression in HepaRG KO CAR cells; format: cell-based, human; settings: Phenobarbital 500 μM, CITCO 1 μM, MI 883 1 μM; ctrl = 1
# Description: as §2, §3, §4
# CAR-LBD = target: T1, CAR-LBD (Homo sapiens, UniProt Q14994); test: MARCoNI CAR-LBD coregulator interaction array; format: biochemical; settings: 100 μM
# T1 construct: HIS-tagged CAR-LBD (ThermoFisher Sciences, Cat. No PV4836); purchased ThermoFisher PV4836
# Experimental: The reaction was performed in a fully automated microarray processing and fluorescent imaging platform (PamStation12) at 20 °C for 80 cycles (two cycles per minute). After removal of the unbound CAR-LBD receptor by washing each array with 25 µl Tris-buffered Saline (TBS) buffer, fluorescent images of the PamChip microarrays were obtained using the PamStation12, and then were analyzed for quantification of CAR binding using BioNavigator software (PamGene International B.V.). For data and statistical analysis, BioNavigator was used.
# Modulation index (MI) is the log10-transformed relative binding value, which is calculated by the compound’s binding value, relative to the vehicle control (DMSO) binding value.
# [5] = normal mice, ref 10 of the reply (Dempsey et al.)
# T1 sequence (Q14994 109-348 isoform Q14994-2 limits assumed): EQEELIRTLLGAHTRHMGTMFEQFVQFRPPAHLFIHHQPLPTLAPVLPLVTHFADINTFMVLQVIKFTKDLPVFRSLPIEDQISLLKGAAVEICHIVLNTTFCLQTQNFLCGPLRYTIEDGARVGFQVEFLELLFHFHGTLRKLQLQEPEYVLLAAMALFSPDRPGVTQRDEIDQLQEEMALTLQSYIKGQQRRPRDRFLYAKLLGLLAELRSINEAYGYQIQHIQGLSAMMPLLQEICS
compound,measurement,setting,value
Clc1cnc(Oc2ccc(Oc3ncc(Cl)cc3Cl)cc2)c(Cl)c1 [TCPOBOP],suppression of atherosclerotic lesions in the aortic valves,murine Car; Ldlr –/– mice,60%
same,decrease of cholesterol content in the liver,murine Car; after 2 months,25%
same,decrease of cholesterol content in the whole body,murine Car; after 2 months,~50%
same,increase of fecal excretion of 3H-labeled bile acids,murine Car; mice,~ 40%
same,colon bsh activity compared to control animals,murine Car; [5],30%
same,increase of colon unconjugated and total BA pools (not significant),murine Car; [5],about 1.4 fold
CCOP(=O)(OCC)C(=Cc1cc(C(C)(C)C)c(O)c(C(C)(C)C)c1)P(=O)(OCC)OCC [SR12813],"RT-qPCR in LS174T (Fig 1 l, CYP3A4 mRNA), replicates","[1]; single agent 1μM, ctrl = 1",1.75 and 3.85 and 3.1
same,"pER6-luc luciferase gene reporter assay (Fig1 m), replicates","[2]; single agent 1μM, ctrl ~1",6.4 and 6.3 and 4.7
same,"pER6-luc luciferase gene reporter assay (Fig1 m), replicates",[2]; single agent 10μM,11.93 and 6.55 and 11
SPA-70,CYP3A4 expression relative to control (replicates),HepaRG cells; SPA-70 1 μM,0.8854 and 0.7984
same,SQLE expression relative to control (mean),HepaRG cells; SPA-70 1 μM + Rif (5 μM),0.6659
same,SQLE expression relative to control (mean),"HepaRG cells; SPA-70 1 μM, 48 h",0.6886
same,CYP3A4 expression relative to control (replicates),HepaRG cells; SPA-70 5 μM,0.7429 and 0.6513 and 0.7215
same,SQLE expression relative to control (mean),HepaRG cells; SPA-70 5 μM + Rif (5 μM),0.7312
same,SQLE expression relative to control (mean),"HepaRG cells; SPA-70 5 μM, 24 h",0.9488
same,SQLE expression relative to control (mean),"HepaRG cells; SPA-70 5 μM, 48 h",0.6267
same,CYP3A4 expression relative to control (replicates),HepaRG cells; SPA-70 10 μM,0.443 and 0.6539 and 0.5479 and 0.7562
same,SQLE expression relative to control (mean),HepaRG cells; SPA-70 10 μM + Rif (5 μM),0.7448
same,SQLE expression relative to control (mean),"HepaRG cells; SPA-70 10 μM, 24 h",0.7277
same,SQLE expression relative to control (mean),"HepaRG cells; SPA-70 10 μM, 48 h",0.6494
same,CYP3A4 expression relative to control (replicates),HepaRG cells; SPA-70 20 μM,0.5871 and 0.5215
same,SQLE expression relative to control (mean),HepaRG cells; SPA-70 20 μM + Rif (5 μM),0.8792
same,SQLE expression relative to control (mean),"HepaRG cells; SPA-70 20 μM, 48 h",0.7487
"CO[C@H]1/C=C/O[C@@]2(C)Oc3c(C)c(O)c4c(O)c(c(/C=N/N5CCN(C)CC5)c(O)c4c3C2=O)NC(=O)/C(C)=C\C=C\[C@H](C)[C@H](O)[C@@H](C)[C@@H](O)[C@@H](C)[C@H](OC(C)=O)[C@@H]1C [rifampicin, reference compound]",PCSK9 mRNA in HepaRG cells,HepaRG cells; Supplementary Fig. 10b,Marginal effect
same,SQLE mRNA in HepaRG cells,HepaRG cells; rifampicin (5 μM),weakly but significantly upregulated
"Cc1ncc2n1-c1ccc(Cl)cc1C(c1ccccc1F)=NC2 [Midazolam, midazolam]",half-life at 2 µM,"[3]; human, s9",6.3 ± 0.3 min
same,microsomal CLint at 2 µM,"[3]; human, s9",55 ± 2.5 µL/min/mg
same,"Stability in S9 fraction (human liver), % remaining","[3]; time 0 (min), 2 μM",100
same,"Stability in S9 fraction (human liver), % remaining",[3]; time 20,94
same,"Stability in S9 fraction (human liver), % remaining",[3]; time 40,53
same,"Stability in S9 fraction (human liver), % remaining",[3]; time 60,18
same,"Stability in S9 fraction (human liver), % remaining",[3]; time 120,1
same,half-life,[4],3.1 min
same,microsomal CLint,[4],113 µL/min/mg
CCC1(c2ccccc2)C(=O)NC(=O)NC1=O [Phenobarbital],"CYP2B6 mRNA, RT-qPCR, HepaRG KO CAR (Fig. 1f), replicates",HepaRG KO CAR cells,2.7 and 1.95 and 2.4
SPA70 [reference compound],"RT-qPCR in LS174T (Fig 1 l, CYP3A4 mRNA), replicates",[1]; Rif 1μM + test compound 10μM,0.37 and 0.6 and 0.8
same,"RT-qPCR in LS174T (Fig 1 l, CYP3A4 mRNA), replicates",[1]; SR12813 1μM + test compound 10μM,0.46 and 0.35 and 0.34
same,"RT-qPCR in LS174T (Fig 1 l, CYP3A4 mRNA), replicates",[1]; single agent 10μM,0.29 and 0.5 and 0.49
same,basal expression of SQLE mRNA in HepaRG cells,HepaRG cells,downregulated
same,rifampicin induction of SQLE mRNA in HepaRG cells,"HepaRG cells; MI-883 at 1 μM, SPA70",abrogated
same,CYP2B6 expression relative to control (replicates),HepaRG cells; SPA70 1 μM,0.7099 and 0.6385
same,CYP2B6 expression relative to control (replicates),HepaRG cells; SPA70 1 μM + CITCO (1 μM),0.8 and 0.8395 and 0.9953
same,CYP2B6 expression relative to control (replicates),HepaRG cells; SPA70 5 μM,0.4419 and 0.6247 and 0.5722
same,CYP2B6 expression relative to control (replicates),HepaRG cells; SPA70 5 μM + Rif (5 μM),0.8063 and 0.705 and 0.7533
same,CYP3A4 expression relative to control (replicates),HepaRG cells; SPA70 5 μM + Rif (5 μM),1.181 and 0.9078 and 1.057
same,CYP2B6 expression relative to control (replicates),HepaRG cells; SPA70 10 μM,0.4185 and 0.6476 and 0.5707 and 0.3103
same,CYP2B6 expression relative to control (replicates),HepaRG cells; SPA70 10 μM + CITCO (1 μM),0.9283 and 0.5126 and 0.8752
same,CYP2B6 expression relative to control (replicates),HepaRG cells; SPA70 10 μM + Rif (5 μM),0.4242 and 0.5514 and 0.5133
same,CYP3A4 expression relative to control (replicates),HepaRG cells; SPA70 10 μM + Rif (5 μM),0.8451 and 0.9487 and 0.8513 and 0.8231
same,CYP2B6 expression relative to control (replicates),HepaRG cells; SPA70 20 μM,0.8031 and 0.3464
same,CYP2B6 expression relative to control (replicates),HepaRG cells; SPA70 20 μM + CITCO (1 μM),1.219 and 0.6292 and 0.9541
same,CYP2B6 expression relative to control (replicates),HepaRG cells; SPA70 20 μM + Rif (5 μM),0.5214 and 0.5645
same,CYP3A4 expression relative to control (replicates),HepaRG cells; SPA70 20 μM + Rif (5 μM),0.8451 and 0.7532
same,rifampicin-induced and basal CYP3A4 and CYP2B6 mRNA expression in HepaRG cells,HepaRG cells; Supplementary Fig. 10,suppressed
same,"pER6-luc luciferase gene reporter assay (Fig1 m), replicates",[2]; Rif 1μM + SPA70 10μM,1.57 and 1.64 and 1.5
same,"pER6-luc luciferase gene reporter assay (Fig1 m), replicates",[2]; SR12813 1μM + SPA70 10μM,1.2 and 2 and 3.55
same,"pER6-luc luciferase gene reporter assay (Fig1 m), replicates","[2]; single agent 1μM, ctrl ~1",1.15 and 1.67 and 1.39
same,"pER6-luc luciferase gene reporter assay (Fig1 m), replicates",[2]; single agent 10μM,1 and 1.1 and 1.26
"Clc1ccccc1C(c1ccccc1)(c1ccccc1)n1ccnc1 [clotrimazole, reference compound]",CAR-coregulator interaction profile,CAR-LBD,releasing most of the coactivator proteins
